Data from patent publication US7054685B2, “Method and apparatus for reducing electroporation-mediated muscle reaction and pain response” (Genetronics, Inc., priority 1999, dated 2006).

Columns and labels:
HEp-2 tumors = experiment: Electroporation therapy of HEp-2 tumors implanted subcutaneously in nude mice (intratumoral drug plus bipolar square pulses); assay type: in vivo, BALB/c A nu/nu mice
Method: BALB/c A nu/nu mice were surgically implanted with HEp-2 tumors in a subcutaneous sac made in the right flank of nude mice. The tumors 34 were allowed to grow and were treated when their average size was about 80 mm^3. The drug, bleomycin, 0.5 units dissolved in 0.15 ml of saline, was injected in each mouse intratumorally using a 30 gauge needle. The drug was injected very slowly at the tumor base and the needle direction rotated (fanning technique) for uniform drug distribution in the tumor 34. The mice in the control were only pulsed D−E+; D=Drug, E=Electric field, +/−denote presence or absence, respectively) while those in the treated group were pulsed and received drug (D+E+). A time lapse of 10+/−1 minute was maintained between the drug injection and the application of electric pulse to allow bleomycin to spread uniformly throughout the tumor 34. The electrical pulses, generated by the prototype bipolar square wave pulse generator, were delivered to the tumor 34 through a 6-needle array (see for example, U.S. Pat. No. 5,702,359 herein incorporated by reference), inserted to the depth of the tumor 34. […] The mice in both the control and pulse-treated groups were monitored every day for mortality and sign of any other disease.
FIG. 16 illustrates the results for the experimental and control groups.

[1] = octanol and water; cited from earlier work

## bleomycin
HEp-2 tumors; D+E+ group, versus substantial increase in control group D-E+
  tumor volume: decreased
HEp-2 tumors; D+E+ group, bleomycin 0.5 units in 0.15 ml saline intratumorally, bipolar square pulses via 6-needle array 10+/-1 min later, 65 days following treatment, 7/8 mice
  treated mice with complete tumor regression: 87.5%
HEp-2 tumors; D+E+ group, bleomycin 0.5 units intratumorally plus bipolar square pulses, 65 days following treatment, 1/8 mice
  treated mice with partial regression: 12.5%
HEp-2 tumors; nearly all the mice treated by both the drug (D) and the pulse (E)
  tumor reaction to electroporation therapy: severe early edema, and later necrosis of the tumor
HEp-2 tumors; the 1/8 D+E+ mouse with partial regression
  extent of partial tumor regression: > 80%
[1]
  log P: very negative
